Literature values, collected in patent US6365170B1, “Use of a disinfectant for living fish” (USF Filtration & Separations Spa-Div. Perdomini, priority 1998, dated 2002).

System: salmon louse (Lepeophtheirus Salmonis)
Conditions: hydrogen peroxide around 1.5 g/l for longer than 20 minutes

Structure (SMILES): OO [hydrogen peroxide]
- success percentage: ~100%
